Values after ≈ are worked out from the molar mass of the structure shown. Read-outs that look alike come from different tables or passages of the source.
Key:
[1] = Liver microsome stability; type: in vitro ADME
Experimental: Microsome stability. Liver microsome stability assays were done by contract research laboratory, Wuxi AppTec Co. (Hubei, China). Briefly, compounds at 1 μM concentration were incubated in singlet with human or CD-1 mouse liver microsomes for 6 time points (0, 5, 10, 20, 30, and 60 min). Loss of parent compound was quantified by liquid chromatography/tandem mass spectrometry.

[2] = tested on: E. faecium VRE (ATCC 51559); test: MIC susceptibility testing; type: cell-based, Enterococcus faecium; conditions: Enterococcus faecium
Procedure, shortened: (§1)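 CLSI broth microdilution in triplicate, 5×10^5 CFU/mL final, ≤0.5% DMSO; MHB for S. aureus, CA-MHB for E. coli and E. faecium, CA-MHB plus 3% laked horse blood for S. pyogenes (5% CO2).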

[3] = Cytotoxicity testing on mammalian cells (AlamarBlue, 48 hours); type: cell-based; conditions: human
Experimental: Cytotoxicity testing on mammalian cells: Compounds were assayed for cytotoxicity against CRL-8155 (human lymphoblasts) and HepG2 cells (human hepatocellular carcinoma). Cells were exposed to serial dilutions of compounds for 48 hours and toxicity was quantified using AlamarBlue (ThermoFisher Scientific, Waltham, Mass.). Assays were performed in quadruplicate and EC50 values were calculated with non-linear regression methods using software by the Collaborative Drug Database (Burlingame, Calif. www.collaborativedrug.com)

[4] = target: recombinant S. aureus MetRS enzyme (Staphylococcus aureus, UniProt A0A0H2XID2); test: Inhibition of SaMetRS, ATP depletion assay; type: biochemical
Procedure, shortened: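 N-terminal 6-His S. aureus MetRS (25 nM) was pre-incubated 15 min at room temperature with compound, 400 μg/mL E. coli tRNA and pyrophosphatase in HEPES-KOH pH 7.9, 2% DMSO. Reaction started with 150 nM ATP plus 20 μM L-methionine, ran 120 min; remaining ATP read by Kinase-Glo luminescence, IC50 by sigmoidal nonlinear regression.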

[5] = tested on: S. aureus MRSA (ATCC 43300); test: MIC susceptibility testing; type: cell-based; conditions: Staphylococcus aureus; read-out: S. aureus MRSA (ATCC 43300) MIC
Procedure, shortened: as §1

[6] = tested on: E. faecalis (ATCC 29212); test: MIC susceptibility testing; type: cell-based; conditions: Enterococcus faecalis, ATCC29212; read-out: E. faecalis (ATCC 29212) MIC
[7] = tested on: E. faecium (ATCC 19434); test: MIC susceptibility testing; type: cell-based; conditions: Enterococcus faecium, ATCC19434; read-out: E. faecium (ATCC 19434) MIC
Procedure, shortened: as §1

[8] = tested on: S. aureus MSSA (ATCC 29213); test: MIC susceptibility testing; type: cell-based, Staphylococcus aureus; conditions: Staphylococcus aureus, 18 h; read-out: S. aureus MSSA (ATCC 29213) MIC
[9] = tested on: E. coli (ATCC 25922); test: MIC susceptibility testing; type: cell-based; conditions: Escherichia coli, ATCC25922
Procedure, shortened: as §1

[10] = tested on: S. pyogenes (ATCC 19615); test: MIC susceptibility testing; type: cell-based; conditions: Streptococcus pyogenes, ATCC19615, 18 h, read-out: S. pyogenes (ATCC 19615) MIC
[11] = tested on: P. aeruginosa (ATCC 27853); test: MIC susceptibility testing; type: cell-based; conditions: Pseudomonas aeruginosa, ATCC27853
[12] = tested on: S. pneumoniae (ATCC 49619); test: MIC susceptibility testing; type: cell-based; conditions: Streptococcus pneumoniae, ATCC49619, 18 h; medium with 3% laked horse blood; read-out: S. pneumoniae (ATCC 49619) MIC
[13] = tested on: S. aureus (ATCC 29213); test: Macromolecular synthesis assays (radiolabeled precursor incorporation); type: cell-based, Staphylococcus aureus; conditions: 30 minute incubations
Experimental: Macromolecular synthesis assays: Methods for measuring uptake of radiolabeled precursors by S. aureus (ATCC strain 29213) were adapted from previous publications. For these assays, bacteria were grown in defined media (DM): RPMI-1640 pH 7.3±0.1 without phenol red or L-glutamine (Lonza, Basel, Switzerland) supplemented with 4 mM L-glutamine (Lonza, Basel, Switzerland), 10 mM HEPES (Lonza, Basel, Switzerland), and 1% (w/v) D-glucose (Sigma Aldrich, St. Louis, Mo.). Fresh overnight cultures grown in DM at 37° C. were diluted 1:50 in pre-warmed DM and grown at 37° C. with shaking (150 rpm) until reaching an OD600 of 0.420 correlating to ˜1*10^9 CFUs/mL in mid-log phase. Each compound was assayed in quadruplicate with an 11-point three-fold serial dilution per radioisotope. A pre-warmed 96-well V-bottom plate (Corning 3894; Corning, Corning, Mass.) containing 25 μL of 4× final concentration of test compound was inoculated with 65 μL of mid-log phase bacteria (OD600 of 0.420). Both positive and negative control wells received 25 μL untreated DM and 65 μL of inoculum at the same time. After one minute, 10 μL of radiolabeled precursor (10× final concentration in DM) was added to samples and positive control wells. Final isotope concentrations for assay of [3H]-lysine (protein), [3H]-thymidine (DNA), and [3H]-uridine (RNA) were 10 μCi/mL, 2 μCi/mL, and 2 μCi/mL respectively. […] After termination, 10 μL of 10× radiolabeled precursor was added to negative control wells. The negative control consisted of adding radiolabeled precursors after termination of the bacterial incubation in order to represent background measurement of the isotope. Plates were sealed with plate tape (Thermo Fischer Scientific, Waltham, Mass.) and shaken at 250 rpm for one hour at room temperature. Aliquots of 125 μL were transferred from the 96-well V-bottom plates to 96-well filter plates (Merck Millipore, Billerica, Mass.). To bind macromolecules, the samples were passed through the filter membrane (0.45 μM hydrophilic Durapore PVDF membrane) with a vacuum manifold, then the filter was washed with 4×200 μL 10% TCA and 1×150 μL of 95% ethanol, and dried overnight in vacuum at room temperature. 25 μL Ultima Gold scintillation fluid (Perkin Elmer, Waltham, Mass.) was added to each well and DPM was quantified using a MicroBeta^2-2450 (Perkin Elmer, Waltham, Mass.) scintillation counter. The percent incorporation was determined by subtracting each well by the average negative background and dividing by the average positive incorporation×100. Error bars represent SEM between replicates. The assay was run twice with similar results.

[14] = tested on: S. aureus VISA (ATCC 700699); test: MIC susceptibility testing; type: cell-based; conditions: Staphylococcus aureus; read-out: S. aureus VISA (ATCC 700699) MIC
Procedure, shortened: as §1

[15] = tested on: S. aureus; test: Serum shift assays (MIC with and without 50% human serum); type: cell-based, Staphylococcus aureus; conditions: Staphylococcus aureus
Experimental: Serum shift assays: To assess the role of protein binding on compound susceptibility, MIC determinations were performed in triplicate in the presence and absence of 50% human serum. Serial threefold dilutions of 2× compound were generated in MHB and aliquoted onto 96 well plates with a DMSO limit of 0.5%. Bacteria were adjusted to 1*10^8 CFUs/mL in MHB, then further diluted 1:100 in MHB and 100% heat deactivated filter sterilized pooled human serum. Fifty microliters were added to each well of the corresponding plates, and the plates were incubated at 37° C. for ˜20 h. The lowest concentration causing ≥90% growth inhibition was recorded as the MIC.

[16] = target: T1, MetRS (T. brucei) (Trypanosoma brucei brucei, UniProt Q38C91); test: MetRS (T. brucei) enzyme inhibition; type: biochemical
T1 sequence (Q38C91 1-773): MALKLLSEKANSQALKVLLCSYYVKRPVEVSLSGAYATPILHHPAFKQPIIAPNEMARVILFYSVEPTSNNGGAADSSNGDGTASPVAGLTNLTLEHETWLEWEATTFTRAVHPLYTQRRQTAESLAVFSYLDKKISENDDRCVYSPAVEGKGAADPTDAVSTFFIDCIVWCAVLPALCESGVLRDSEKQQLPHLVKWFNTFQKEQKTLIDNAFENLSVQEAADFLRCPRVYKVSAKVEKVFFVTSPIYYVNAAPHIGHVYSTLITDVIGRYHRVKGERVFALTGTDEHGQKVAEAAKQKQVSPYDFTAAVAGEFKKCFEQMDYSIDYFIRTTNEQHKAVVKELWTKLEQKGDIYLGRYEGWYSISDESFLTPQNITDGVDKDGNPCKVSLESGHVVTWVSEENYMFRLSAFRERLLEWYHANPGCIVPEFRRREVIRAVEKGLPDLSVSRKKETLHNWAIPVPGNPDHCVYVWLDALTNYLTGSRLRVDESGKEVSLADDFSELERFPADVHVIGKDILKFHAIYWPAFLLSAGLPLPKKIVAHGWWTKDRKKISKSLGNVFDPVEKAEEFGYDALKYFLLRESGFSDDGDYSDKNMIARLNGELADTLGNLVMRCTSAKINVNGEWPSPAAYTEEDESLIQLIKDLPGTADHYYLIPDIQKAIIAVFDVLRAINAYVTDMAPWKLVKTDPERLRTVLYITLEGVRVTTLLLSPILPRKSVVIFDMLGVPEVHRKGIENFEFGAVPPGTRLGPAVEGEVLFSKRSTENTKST

[17] = target: MetRS (C. parvum) (Cryptosporidium parvum, UniProt Q5CVN0); test: MetRS (C. parvum) enzyme inhibition; type: biochemical; conditions: read-out: (C) MetRS (C. parvum) IC50
[18] = Protein binding assays, equilibrium dialysis; type: in vitro ADME, mouse; conditions: 1 μM, equilibrium dialysis 22 hours
Experimental: Protein binding assays: Compound binding to mouse plasma proteins was determined using 96-well equilibrium dialyzer plates (SDIS 9610EN, Nest Group, Inc.). Mouse plasma ([…]-SW-F, BioreclamationIVT, Westbury, N.Y.) containing compound (final concentration 1 μM) was added to a donor chamber as a 150 μL volume. The buffer solution (0.2 mM phosphate buffer, 150 μL) was added to the reciprocal acceptor chamber. Each compound was tested in triplicate. To prepare calibration solution for compound quantifications, blank wells were prepared containing only mouse plasma in a donor well and buffer solution in its acceptor well. The equilibrium dialysis was carried out by rocking the plate for 22 hours in 37° C. Once equilibrium was reached, the plasma and buffer solution from both wells were carefully removed for further analysis with liquid chromatography-tandem mass spectrometry. Plasma solution and internal standard were mixed in the presence of 80% acetonitrile. After centrifuging the solution, the supernatant was transferred to an insert. Similarly, the buffer solution from the acceptor side was prepared containing 40% acetonitrile. Calibration standards for donor and acceptor sides were prepared with compound concentrations of 50 nM, 100 nM, 250 nM, 500 nM, and 1 μM. The compound concentrations from each well were calculated from the calibration curves using Microsoft Excel. The percentage of the test compound bound was determined as follows: % Free=(Concentration buffer chamber/Concentration plasma chamber)×100% % Bound=100%−% Free

[19] = tested on: S. aureus MRSA (ATCC 33591); test: MIC susceptibility testing; type: cell-based, Staphylococcus aureus; conditions: Staphylococcus aureus, MRSA ATCC33591; read-out: (G) MRSA (ATCC33591) MIC
Procedure, shortened: as §1

[20] = tested on: T. cruzi; test: T. cruzi growth inhibition; type: cell-based, Trypanosoma cruzi; conditions: read-out: (E) T. cruzi EC50
[21] = read-out: E. faecium VRE (ATCC 51559) MIC
[22] = CRL-8155 cells (human lymphoblasts), read-out: Mamm. cells (CRL8155) CC50
[23] = HepG2 cells (human hepatocellular carcinoma), read-out: Mamm. cells (HepG2) CC50
[24] = recombinant enzyme, lower limit of detection 0.025 μM, read-out: MetRS S. aureus (enzyme) IC50

recombinant S. aureus MetRS enzyme, sequence (A0A0H2XID2 2-657): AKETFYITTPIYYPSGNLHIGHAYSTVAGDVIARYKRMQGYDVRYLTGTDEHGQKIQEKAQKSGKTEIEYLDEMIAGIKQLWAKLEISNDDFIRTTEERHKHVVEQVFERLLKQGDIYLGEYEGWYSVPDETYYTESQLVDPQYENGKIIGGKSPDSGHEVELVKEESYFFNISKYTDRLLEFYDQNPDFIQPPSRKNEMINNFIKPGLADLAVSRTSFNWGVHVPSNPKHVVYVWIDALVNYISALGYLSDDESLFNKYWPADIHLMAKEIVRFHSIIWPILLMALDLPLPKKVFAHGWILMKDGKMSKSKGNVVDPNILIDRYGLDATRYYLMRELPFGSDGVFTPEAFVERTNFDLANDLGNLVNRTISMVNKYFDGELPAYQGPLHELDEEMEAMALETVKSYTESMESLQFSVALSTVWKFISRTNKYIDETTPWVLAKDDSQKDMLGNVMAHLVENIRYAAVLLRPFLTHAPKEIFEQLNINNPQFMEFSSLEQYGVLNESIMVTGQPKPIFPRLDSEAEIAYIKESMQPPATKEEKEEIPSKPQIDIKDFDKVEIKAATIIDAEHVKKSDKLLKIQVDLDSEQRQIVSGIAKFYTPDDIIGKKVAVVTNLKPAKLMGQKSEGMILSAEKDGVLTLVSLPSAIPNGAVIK
MetRS (C. parvum), sequence (Q5CVN0 entry or part of it): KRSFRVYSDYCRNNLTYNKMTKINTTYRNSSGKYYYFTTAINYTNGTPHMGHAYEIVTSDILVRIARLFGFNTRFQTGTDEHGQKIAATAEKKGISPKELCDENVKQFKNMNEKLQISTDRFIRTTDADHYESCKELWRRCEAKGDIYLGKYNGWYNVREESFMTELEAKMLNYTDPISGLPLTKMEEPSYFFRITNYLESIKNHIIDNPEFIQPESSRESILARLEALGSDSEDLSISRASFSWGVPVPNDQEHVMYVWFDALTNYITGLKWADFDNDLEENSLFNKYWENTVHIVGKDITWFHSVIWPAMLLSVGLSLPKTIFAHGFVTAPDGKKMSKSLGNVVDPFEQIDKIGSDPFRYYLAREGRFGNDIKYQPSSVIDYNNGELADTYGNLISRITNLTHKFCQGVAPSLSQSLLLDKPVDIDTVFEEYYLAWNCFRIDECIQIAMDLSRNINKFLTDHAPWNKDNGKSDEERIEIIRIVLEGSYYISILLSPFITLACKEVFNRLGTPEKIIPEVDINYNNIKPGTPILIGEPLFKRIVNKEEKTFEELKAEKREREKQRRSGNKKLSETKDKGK

SMILES: O=c1[nH]c(Cc2ccc(Cl)cc2Cl)cn1Cc1nc2ccc(F)nc2[nH]1 [Compound 1962, 4-(2,4-dichlorobenzyl)-1-((5-fluoro-3H-imidazo[4,5-b]pyridin-2-yl)methyl)-1,3-dihydro-2H-imidazol-2-one, reference compound]
- half-life at 1 μM ([1]; human, human liver microsomes, read-out: Microsome stability: Human T½): 25.9 min
- half-life at 1 μM ([1]; mouse liver microsomes, CD-1 mouse, read-out: Microsome stability: Mouse T½): 27 min
- MIC [2, 21]: 1.25 µg/mL (≈ 3.19 µM)
- CC50 at 48 h [3, 22]: > 19.6 µg/mL
- CC50 at 48 h [3, 23]: > 19.6 µg/mL
- IC50 [4, 24]: < 25 nM
- MIC [5]: 5 µg/mL (≈ 12.7 µM)
- MIC [6]: 5 µg/mL (≈ 12.7 µM)
- MIC [7]: 1.25 µg/mL (≈ 3.19 µM)
- MIC [8]: 2.5 µg/mL (≈ 6.37 µM)

SMILES: Clc1cc(Cl)cc(CNCCCNc2nc3ncccc3[nH]2)c1 [Compound 1575, N1-(3,5-dichlorobenzyl)—N3-(1H-imidazo[4,5-b]pyridin-2-yl)propane-1,3-diamine]
- MIC [2, 21]: 0.625 µg/mL (≈ 1.78 µM)
- CC50 at 48 h [3, 22]: 12.2 µg/mL (≈ 34.8 µM)
- CC50 at 48 h [3, 23]: > 17.5 µg/mL
- IC50 [4, 24]: < 25 nM
- MIC [5]: > 10 µg/mL
- MIC [9]: > 10 µg/mL
- MIC ([10]; medium with 3% laked horse blood): > 10 µg/mL
- MIC [6]: 1.25 µg/mL (≈ 3.57 µM)
- MIC [11]: > 10 µg/mL
- MIC [12]: > 10 µg/mL
- MIC [8]: 10 µg/mL (≈ 28.6 µM)

SMILES: O=C(O)c1cn(C2CC2)c2cc(N3CCNCC3)c(F)cc2c1=O [CIP, ciprofloxacin]
- incorporation of 3H-thymidine (DNA synthesis) [13]: selective inhibition of DNA synthesis
- MIC [2, 21]: 5 µg/mL (≈ 15.1 µM)
- IC50 [4]: > 10000 nM
- MIC [9]: 0.039 µg/mL (≈ 0.118 µM)
- MIC [10]: 0.625 µg/mL (≈ 1.89 µM)
- MIC [7]: 5 µg/mL (≈ 15.1 µM)
- MIC [14]: > 10 µg/mL
- MIC ([15]; read-out: Avg MIC ± SEM (+50% serum), 50% human serum): 0.152 ± 0.01 µg/mL
- MIC ([15]; read-out: Avg MIC ± SEM (no serum), no serum): 0.145 ± 0.001 µg/mL

SMILES: CCCn1c(Cc2ccc(Cl)cc2Cl)cn(Cc2nc3nc(F)ccc3[nH]2)c1=O [Compound 2069, 4-[(2,4-dichlorophenyl)methyl]-1-({5-fluoro-1H-imidazo[4,5-b]pyridin-2-yl}methyl)-3-propyl-2,3-dihydro-1H-imidazol-2-one]
- MIC ([2]; E. faecium ATCC 51559, read-out: (I) E. faecium (ATCC 51559) MIC): > 2 µg/mL
- IC50 [16]: < 40 nM
- IC50 [17]: < 40 nM
- IC50 ([4]; read-out: (B) MetRS (S. aureus) IC50): < 25 nM
- MIC ([15]; 50% human serum, read-out: Avg MIC ± SEM (+50% serum)): 18.3 ± 2.2 µg/mL
- MIC ([15]; no serum, read-out: Avg MIC ± SEM (no serum)): 0.036 ± 0.03 µg/mL
- % binding to mouse plasma [18]: 99.6%
- MIC [19]: 0.445 µg/mL (≈ 1.02 µM)
- EC50 ([20]; Trypanosoma cruzi): 91.3 nM
- EC50 [20]: 176 nM

Reference: US11584744B2 (UNIVERSITY OF WASHINGTON, priority 2017, dated 2023)
